The values below come from patent US11801310B2, “Composition for improving the solubility of poorly soluble substances, use thereof and complex formulation containing thereof” (Industrial Technology Research Institute, priority 2017, dated 2023).

Values after ≈ are worked out from the molar mass of the structure shown.

For data set [1] the following is noted: at 25° C.; cited from earlier work.
The nature of data set [2]: Solubility test for loteprednol etabonate (LE), Example 1-1: different amino acids, oligopeptides or monosaccharide as stabilizer. Type of data set: physicochemical. Particulars: aqueous with cosolvent or surfactant or cyclodextrin, thermodynamic from solid; LE feeding 4000 μg; re-dissolved in 2 mL deionized water, pH 5.5, room temperature, 0.22 μm filtered, HPLC. The protocol: The samples were formulated and analyzed according to the formulas shown in the following Table 1 and the methods described below at room temperature. […] After that, the mixture was dried in a vacuum environment to performing drying to remove the solvent therein and obtain a dried product. […] Next, the test sample was filtered with a 0.22 μm pore size filter to remove undissolved precipitate. Finally, the content of loteprednol etabonate (LE) in the test sample was analyzed by high performance liquid chromatography (HPLC).

The nature of data set [3]: Solubility test for LE, Example 1-2: histidine as stabilizer. The class given is physicochemical. Conditions: secondary water, aqueous with cosolvent or surfactant or cyclodextrin; final volume 1 mL, pH 5.5, room temperature, 0.22 μm filtered, HPLC. From the text: The samples were formulated and analyzed according to the formulas shown in the following Table 3 and the methods described below at room temperature.
Hydroxypropyl-γ-cyclodextrin, a water-soluble polymer (hydroxypropyl methyl cellulose (HPMC) (molecular weight: 16676)), and histidine (His) as a stabilizer of the formulation were co-dissolved in secondary water to form a solution.
[…] After that, […], and the pH was adjusted to 5.5 with a 0.1 M HCl aqueous solution, and the final solution volume was fixed to 1 mL (the insufficient portion was replenished with secondary water) to form a test sample. Thereafter, the test sample was then filtered with a 0.22 μm pore size filter to remove undissolved precipitate. Finally, the content of loteprednol etabonate (LE) in the test sample was analyzed by high performance liquid chromatography (HPLC).

Data set [4] is described as follows: Solubility test for LE, Example 1-3: glutathione as stabilizer. Type of data set: physicochemical. Conditions: secondary water, aqueous with cosolvent or surfactant or cyclodextrin; final volume 1 mL, pH 5.5, room temperature, 0.22 μm filtered, HPLC. The protocol:
The samples were formulated and analyzed according to the formula shown in the following Table 5 and the methods described below at room temperature.
[…] After that, the mixture was treated by a rotary evaporator to completely remove methanol, and the pH was adjusted to 5.5 with a 1 M NaOH aqueous solution, and the final solution volume was fixed to 1 mL (the insufficient portion was replenished with secondary water) to form a test sample. Thereafter, the test sample was then filtered with a 0.22 μm pore size filter to remove undissolved precipitate. Finally, the content of loteprednol etabonate (LE) in the test sample was analyzed by high performance liquid chromatography (HPLC).

Take `N[C@@H](CCC(=O)N[C@@H](CS)C(=O)NCC(=O)O)C(=O)O` [GSH, glutathione]: the Water solubility in data set [1] is 950 mM. With `CCOC(=O)O[C@]1(C(=O)OCCl)CC[C@H]2[C@@H]3CCC4=CC(=O)C=C[C@]4(C)[C@H]3[C@@H](O)C[C@@]21C` [LE, loteprednol etabonate], the solubility in data set [2], in data set [3] and in data set [4] was 1.5 µg/mL (≈ 3.21 µM) throughout.

Turning to `OC[C@@H](O)[C@@H](O)[C@H](O)[C@H](O)CO` [Mannitol, mannitol], the Water solubility in data set [1] was 1190 mM.
